Laboratory results from patent publication US8748111B2, “Multiplexed olfactory receptor-based microsurface plasmon polariton detector” (Massachusetts Institute of Technology, priority 2008, dated 2014).
Values joined by “and” are separate entries in the source; they are usually repeats but may differ in a detail not shown here. Equal values may be shown once. “Also recorded” adds a separate entry of the source.

Legend:
hOR17-4 [1] = molecular target: T1, hOR17-4 (Homo sapiens, UniProt P34982); assay: Surface plasmon resonance (Biacore T100) odorant binding assay, cell-free produced receptor
T1 construct: made in house; host or cells: wheat germ cell-free extract (Roche RTS Wheat Germ CECF kit)
T1 sequence (P34982 1-312): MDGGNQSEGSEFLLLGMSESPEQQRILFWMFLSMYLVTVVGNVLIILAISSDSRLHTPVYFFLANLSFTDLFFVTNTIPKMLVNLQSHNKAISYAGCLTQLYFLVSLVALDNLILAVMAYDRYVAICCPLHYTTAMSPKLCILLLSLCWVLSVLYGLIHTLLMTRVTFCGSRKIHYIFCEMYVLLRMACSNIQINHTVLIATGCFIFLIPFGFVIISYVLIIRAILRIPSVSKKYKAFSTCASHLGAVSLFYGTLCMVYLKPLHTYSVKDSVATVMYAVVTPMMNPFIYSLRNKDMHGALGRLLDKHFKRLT
Protocol: All odorant binding experiments were performed on a Biacore™ T100 (GE Healthcare, Uppsala, Sweden) at 25° C. The sensor chip CM4, amine coupling kit, HBS (10 mM Hepes, 0.15 M NaCl, pH 7.4) and PBS were from (GE Healthcare, Uppsala, Sweden).
A anti His-tag antibody (R&D Systems, Minneapolis, Minn., USA) at 5 μg/ml in 10 mM sodium acetate pH 4.75 was immobilized onto a series S sensor chip using standard amine-coupling chemistry in HBS running buffer at 10 μl/min (33). The amount of coupled antibody was about 13000 RU. Control surfaces were prepared similarly without protein derivatization and utilized as a reference surfaces for compound binding experiments. Cell-free lysate containing the expressed olfactory receptor was centrifuged for […] at 14000×g at 4° C., to remove larger particles. The supernatant, containing about 0.6 mg/ml olfactory receptor, was immediately captured on the surface plasmon resonance (SPR) chip using PBS and 3% (v/v) DMSO as running buffer at 10 μl/min. […] A 30 sec pulse of coupling reagents was injected to achieve the stable baseline needed for the kinetic assay.
Fresh odorant undecanal solutions were made as follows. Pure odorant was diluted in DMSO to 0.5 M. This solution was diluted 33.3 times in PBS to obtain a […] odorant solution in running buffer with 3% (v/v) DMSO. […]

hOR17-4 [2] = molecular target: T2, hOR17-4 (Homo sapiens, UniProt P34982, R25Q); assay: Intracellular calcium-ion mobility assay in induced HEK293S cells; type: cell-based; set-up: of which 969 by code for the 323 amino acid hOR17-4-GlyGly-rho1D4 protein; made in house; conditions: for cytosolic Ca2+ response to odorant: Fura-Red
T2 sequence (P34982 with tags, fused parts or gaps R25Q): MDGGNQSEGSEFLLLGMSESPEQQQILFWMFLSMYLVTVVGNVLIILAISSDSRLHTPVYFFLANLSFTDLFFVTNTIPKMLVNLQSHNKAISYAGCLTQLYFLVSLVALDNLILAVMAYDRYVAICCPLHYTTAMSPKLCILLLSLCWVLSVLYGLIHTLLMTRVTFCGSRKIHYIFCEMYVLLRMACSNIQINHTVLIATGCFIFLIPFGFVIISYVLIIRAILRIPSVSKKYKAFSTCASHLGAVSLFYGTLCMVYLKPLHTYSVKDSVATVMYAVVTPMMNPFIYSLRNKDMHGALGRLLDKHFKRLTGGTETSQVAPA
Protocol: To determine if receptors expressed at the surface of induced HEK293S rho5 cells was functional, we performed calcium-influx assays. In our heterologous HEK293S system, olfactory receptors can signal through the inositol triphosphate (IP3) pathway to release intracellular Ca2+, using the “promiscuous” G-protein Gαq.
HEK293S rho5 cells were seeded and grown on glass coverslips until they reached 80-90% confluency. Expression of hOR17-4 was then induced with media containing tetracycline (1 μg/ml) for 48 hours. Cells were then washed with PBS and loaded with the calcium sensitive dye Fluo-3 (Invitrogen) according to the manufacturers instructions. Coverslips were then mounted and visualized using time-lapse confocal microscopy. Experiments were conducted in PBS and odorant stocks were added by hand using a pipettor to final concentrations between 1-100 μM. Both specific and non-specific odorants were tested. As an additional control to test whether cells could increase internal calcium levels, 1 mM ATP was added.
The functional activity and specificity of hOR17-4 was probed in heterologous HEK293S cells by monitoring intracellular calcium-ion concentrations using time-lapse confocal microscopy (19). In our HEK293S cells, olfactory receptors can signal through the inositol triphosphate (IP3) pathway to release intracellular Ca^2+ from the ER, mediated by the “promiscuous” G-protein Gαq. Induced cells responded to the specific odorant bourgeonal at concentrations as low as 1 μM (FIG. 28). […] Importantly, nearly 100% of the cells were responsive to bourgeonal due to the stable-inducible nature of this system, a vast improvement over expression methods that relied on transient transfection with less than 5% of cells being responsive (3).
hOR17-4 expression in the stable HEK293S cell line was induced by 48-hour incubation in DMEM/F12 medium with GlutaMAX, supplemented with 1 μg/ml tetracycline. Then cells were loaded at 37° C. for 30 min with […] Fura-Red-AM (Molecular Probes) in serum-free DMEM/F12 medium and were subsequently washed with PBS and incubated in DMEM/F12 medium containing 10% FCS for 30 min to allow complete hydrolysis of intracellular Fura-Red-AM. Cytosolic Ca^2+ responses were recorded by confocal fluorescence microscopy (Zeiss LSM 510) using a water immersion objective (Zeiss Achroplan 63×, NA 1.2). Excitation was at 488 nm (Ar^+ laser); the 650 nm long pass emission filter was used to image Fura-Red at a rate of 1 image per second. Stock solutions of the tested odorants were prepared freshly in DMSO and diluted 1000-fold into PBS to give the desired concentrations.

hOR17-4 [3] = molecular target: T2, hOR17-4; assay: Surface plasmon resonance (Biacore A100) odorant binding assay, detergent-solubilized receptor from HEK293S cells; set-up: of which 969 by code for the 323 amino acid hOR17-4-GlyGly-rho1D4 protein; made in house; lysate supernatant captured on the chip; conditions: not rigorously determined due to low odorant solubility above 40 μM
Excerpt: First, the rho1D4 mAb was covalently attached to the dextran surface of a Biacore CM4 chip using standard amine-coupling chemistry. The hOR17-4 receptor protein was then non-covalently captured on the antibody via its C-terminal rho tag (TETSQVAPA (SEQ ID NO: 50)). Odorant ligands were then applied and odorant binding detected in real time via the mass-based refractive index change. […] Low affinity Biacore data is typically characterized by fast on- and off-rates, where curvature in the association and dissociation phase may not be observable. […] However, the sensorgram data shown reinforces the prediction of low, micromolar affinities for the two odorants.
All odorant binding experiments were performed at 25° C. on a Biacore™ A100 (GE Healthcare), which has a parallel flow configuration, allowing assay development (e.g., solubilization conditions) to be tested and optimized in parallel and multiplexed format. The sensor chip CM4, amine-coupling kit, HBS (10 mM Hepes, 0.15 M NaCl, pH 7.4) and PBS were from GE Healthcare. The detailed protocol (see Supporting Information) was adapted, with several key modifications, from that previously reported by Kaiser et al. (25). […]

[4] = tetracycline-induced HEK293S cells

Structure (SMILES) | equilibrium dissociation constant (hOR17-4 [3]) | cytosolic Ca2+ response to odorant (hOR17-4 [2]; [4]) | further results
CCCCCCCCCCC=O [undecanal] |  |  | Kd (hOR17-4 [1]; equilibrium binding responses vs concentration fitted to a simple binding isotherm, 25° C., 3% DMSO, read-out: affinity constant, KD): 22 µM and ~22 µM; dose response binding (RU) (hOR17-4 [1]; injections at 1.2, 3.7, 11, 33 and 100 uM): binding response increases by increasing odorant concentration; inhibition of bourgeonal-induced hOR17-4 activation (hOR17-4 [2]; preincubation and co-application of 100 μM with bourgeonal 100 μM): Odorant response could be blocked; also recorded: inhibited hOR17-4 activation by bourgeonal
CC(C=O)Cc1ccc(C(C)(C)C)cc1 (stereo not shown) [lilial] | low micromolar range |  | 
CCCCCCCC=O [octanal] |  | No response | 
C/C=C/c1ccc(OC)cc1 [anithole] |  | No response | 
CC(C)(C)c1ccc(CCC=O)cc1 [bourgeonal] |  | transient Ca^2+ signaling | cells responsive to odorant (hOR17-4 [2]; stable-inducible HEK293S cells): ~100%; lowest odorant concentration giving a Ca2+ response (hOR17-4 [2]; tetracycline-induced HEK293S cells, confocal microscopy): ≤ 1 µM
CCc1ccc(CC(C)(C)C=O)cc1 [floralozone] | low micromolar range |  | 
